In patent US9808527B2, “Methods and compositions for treating HIV infections” (priority 2006, dated 2017):

Experiments:
[1] = system: HIV-2 strains (HIV-2EHO and HIV-2ROD); assay: MTT assay, MT-2 cells, HIV-2 strains compared with HIV-1LAI; type: cell-based
Method: (§1) Drug susceptibility assay. The susceptibility of HIV-1LAI, HIV-2EHO, HIV-2ROD, to various drugs and the cytotoxicity of those drugs was determined by using the MTT assay. Briefly, MT-2 cells (2×10^4/mL) were exposed to 100 TCID50s (50% tissue culture infectious doses) of HIV-1LAI, HIV-2EHO, or HIV-2ROD in the presence or absence of various concentrations of drugs in 96-well microculture plates and were incubated at 37° C. for 7 days. After 100 μL of the medium was removed from each well, 3-(4,5-dimethylthiazol-2-yl)-2,5-diphenyltetrazolium bromide (MTT) solution (10 μL, 7.5 mg/mL in phosphate-buffered saline) was added to each well in the plate, followed by incubation at 37° C. for 4 hours. […] All assays were performed in duplicate or triplicate. […] On day 7 of culture, the supernatant was harvested and the amount of p24 Gag protein was determined by using a fully automated chemiluminescent enzyme immunoassay system (Lumipulse F; Fujirebio Inc., Tokyo, Japan) (22). […]

[2] = system: HIV-1, HIV-2, and primary HIV-1 strains of different subtypes; assay: Antiviral activity over Tables 1, 2 and 5 (summary); type: cell-based
Method: as §1

[3] = system: HIV-1 isolates of all subtypes (subtypes A, B, C, and E); assay: p24 assay, PHA-PBMs, panel of HIV-1 isolates of subtypes A, B, C, and E; type: cell-based; conditions: Human immunodeficiency virus 1, read-out: IC50 against HIV-1 isolates of subtypes A, B, C, and E
Method: as §1
The IC50 values were determined by using PHA-PBMs as target cells and the inhibition of p24 Gag protein production by each drug was used as an endpoint. […]

[4] = Cytotoxicity by MTT assay; type: cell-based, Human; conditions: human
Method: Drug susceptibility assay. The susceptibility of HIV-1LAI, HIV-2EHO, HIV-2ROD, to various drugs and the cytotoxicity of those drugs was determined by using the MTT assay. Briefly, MT-2 cells (2×10^4/mL) were exposed to 100 TCID50s (50% tissue culture infectious doses) of HIV-1LAI, HIV-2EHO, or HIV-2ROD in the presence or absence of various concentrations of drugs in 96-well microculture plates and were incubated at 37° C. for 7 days. After 100 μL of the medium was removed from each well, 3-(4,5-dimethylthiazol-2-yl)-2,5-diphenyltetrazolium bromide (MTT) solution (10 μL, 7.5 mg/mL in phosphate-buffered saline) was added to each well in the plate, followed by incubation at 37° C. for 4 hours. […] All assays were performed in duplicate or triplicate. To determine the sensitivity of HIV-1Ba-L, HIV-1ERS104 pre, and clinical multi-drug-resistant HIV-1 isolates and different subtypes of HIV-1 isolates to drugs, phytohemagglutinin-activated peripheral blood mononuclear cells (PHA-PBMs; 10^6/mL) were exposed to 50 TCID50 (50% tissue infectious dose) of each HIV-1 isolate and cultured in the presence or absence of various concentrations of drugs in 10-fold serial dilutions in 96-well microtiter culture plates. To determine the drug susceptibility of certain laboratory HIV-1 strains (HIV-1NL4-3), MT-4 cells were used as target cells. MT-4 cells (10^5/mL) were exposed to 100 TCID50 of wild type HIV-1NL4-3 and PI-resistant HIV-1NL4-3 in the presence or absence of various concentrations of drugs and were incubated at 37° C. On day 7 of culture, the supernatant was harvested and the amount of p24 Gag protein was determined by using a fully automated chemiluminescent enzyme immunoassay system (Lumipulse F; Fujirebio Inc., Tokyo, Japan) (22). […] All assays were performed in duplicate or triplicate.

[5] = target: T1, HIV-1 protease (Human immunodeficiency virus type 1 group M subtype B, UniProt P04585, C555A/C583A/L521I/L551I/Q495K/V491I); assay: biochemical; type: biochemical
T1 construct: Wild-type PR at final concentrations of 160-190 nM were added
Description: Enzyme kinetics. The chromogenic substrate Lys-Ala-Arg-Val-Nle-p-nitroPhe-Glu-Ala-Nle-amide (Sigma, St. Louis, Mo.) was used to determine the kinetic parameters (Kovalevsky et al. J Mol Biol 363(1):161-173 (2006), Ghosh et al. J Med Chem 49(17):5252-5261 (2006)). […] The kcat and Km values were obtained employing standard data fitting techniques for a reaction obeying Michaelis-Menten kinetics. The data curves were fitted using SigmaPlot 8.0.2 (SPSS Inc., Chicago, Ill.). The active enzyme concentrations were calculated from the intercept of the linear fit to the IC50 versus [S] plots with the IC50 axis. The Ki values were obtained from the IC50 values estimated from an inhibitor dose-response curve with the spectroscopic assay using the equation Ki=(IC50-[E]/2)/(1+[S]/Km), where [E] and [S] are the PR and substrate concentrations, respectively (Maibaum & Rich J Med Chem 31(34):625-629 (1988)). The Ki values were measured at four to five substrate concentrations. The measurement was repeated at least three times to produce the average values.

For `CC(C)CN(CC(O)C(Cc1ccccc1)NC(=O)OC1COC2OCCC12)S(=O)(=O)c1ccc2c(c1)OCO2` (centres unmarked) [GRL-98065], which “factor by which potency against HIV-2 strains is less than against HIV-1LAI” value [1] is on record?
Its value is 6-9.

What about the IC50 [2] of the same compound?
Its IC50 is 0.2 to 4.5 nM.

And the IC50 [3]?
Its IC50 is 0.2 to 0.5 nM.

And the CC50 at 7 days [4]?
Its CC50 at 7 days is 35.7 µM.

What about the Ki [5] of the same compound?
The Ki was 0.014 nM.
